According to US6322771A, “Induction of pharmacological stress with adenosine receptor agonists” (priority 1999, dated 2001):
Read-outs that look alike come from different tables or passages of the source.

How the values were obtained:
adult mongrel dogs = conditions: for LCX coronary flow: baseline 42 ml/min
patients [1] = conditions: 9,256 patients; cited from earlier work
A1 adenosine receptors = conditions: A1 versus A2A adenosine receptors; cited from earlier work
[2] = tested on: dog with critical LAD stenosis
Experimental: Following a 15 minute baseline stabilization period, the LAD snare occluder was tightened to produce a critical LAD stenosis. A critical stenosis was defined as one that produced no change in resting coronary flow, however coronary flow reserve was completely abolished. […] Five minutes later, an in vivo image was acquired and the animal was then immediately killed to prevent ^99m Tc-N-NOET redistribution. The heart was removed and sliced into 4 rings from apex to base. The heart slices were placed on a cardboard sheet, covered with plastic wrap, and ex vivo imaging of the heart slices was performed directly on the collimator of a conventional planar gamma camera. Image background subtraction was performed on the in vivo image using standard nuclear medicine software developed for this purpose. Defect magnitude was expressed as an LAD/LCX count ratio between counts in LAD and LCX regions of interest drawn on the in vivo and ex vivo heart images.

patients [3] = conditions: 3,911 patients; cited from earlier work
patients [4] = conditions: 3,715 patients; cited from earlier work

In the case of `Nc1ncnc2c1ncn2[C@@H]1O[C@H](CO)[C@@H](O)[C@H]1O` [adenosine], the LCX flow (adult mongrel dogs; i.v. 250 μg/kg/min x 3 min) is given as 139 mL/min, the arterial pressure (adult mongrel dogs; i.v. 250 μg/kg/min x 3 min, from 109 mm Hg) is given as 80 mm Hg and the A-V conduction block (patients [1]) is given as 8%. For the same molecule, the ECG changes (patients [1]) was 9%, the chest pain (patients [1]) was 35% and the flushing (patients [1]) was 37%. For the same molecule, the headache (patients [1]) was 14%, the “patients with adverse side effects” value (patients [1]) was 82% and the “shortness of breath or dyspnea” value (patients [1]) was 35%.
In the case of `Nc1nc(Cl)nc2c1ncn2[C@@H]1O[C@H](CO)[C@@H](O)[C@H]1O` [Cl-Ado, 2-chloroadenosine], the “receptor subtype preference as activator” value (A1 adenosine receptors) is given as “more potent activator of A1 adenosine receptors than of A2A adenosine receptors”.
With `CCNC(=O)[C@H]1O[C@@H](n2cnc3c(N)nc(C#CCC4CCC(COC(C)=O)CC4)nc32)[C@H](O)[C@@H]1O` (stereo partly drawn) [JMR-193e, [4-(3-{9[(4S,5S,2R,3R)-5-(N-ethylcarbamoyl)-3,4-dihydroxyoxolan-2-yl]-6-aminopurin-2-yl}prop-2-ynyl)cyclohexyl]methyl acetate] the LCX coronary flow (adult mongrel dogs; 0.05 μg/kg/min x 10 min i.v. infusion) was 66 mL/min, the LCX coronary flow (adult mongrel dogs; 0.1 μg/kg/min x 10 min i.v. infusion) was 75 mL/min and the LCX coronary flow (adult mongrel dogs; 0.2 μg/kg/min x 10 min i.v. infusion) was 124 mL/min. The LCX coronary flow (adult mongrel dogs; 0.3 μg/kg/min x 10 min i.v. infusion) was 153 mL/min, the LCX coronary flow (adult mongrel dogs; 0.4 μg/kg/min x 10 min i.v. infusion) was 140 mL/min and the “time flow remained elevated more than 2x normal” value (adult mongrel dogs; bolus 0.3 μg/kg) was 3 to 4 min. For the same molecule, the “time of maximal LCX flow post-injection” value (adult mongrel dogs; bolus 0.3 μg/kg) was 2.3 min, the LCX flow (adult mongrel dogs; bolus 0.3 μg/kg, from 41 ml/min) was 140 mL/min and the “pharmacodynamic t1/2” value (adult mongrel dogs; return of hemodynamics to baseline after terminating the infusion) was 12 ± 2 min.
For `CCNC(=O)[C@H]1O[C@@H](n2cnc3c(N)nc(C#CC[C@H]4CC[C@H](C(=O)OC)CC4)nc32)[C@H](O)[C@@H]1O` [DWH-146e], the “increase of coronary flow in the normal LCX coronary artery” value ([2]; 0.3 μg/kg/min i.v. infusion) was ~5 fold, the “in vivo and ex vivo 99mTc-N-NOET images” value ([2]; critical LAD stenosis) was “readily detectable large anteroseptal perfusion defects” and the “change in mean arterial pressure” value ([2]; dog, in vivo) was “no change”. The “Heart Rate” value ([2]; peak, 0.3 μg/kg/min i.v. infusion, baseline 109, stenosis 123) was 143 BPM, the dP/dt ([2]; peak, 0.3 μg/kg/min i.v. infusion, baseline 2906, stenosis 2713) was 2606 mm Hg · sec-1 and the “LCX coronary flow” value ([2]; peak, 0.3 μg/kg/min i.v. infusion, normal artery, baseline 39, stenosis 38) was 185 mL/min. The “LAD Coronary Flow” value ([2]; peak, 0.3 μg/kg/min i.v. infusion, stenosed artery, baseline 39, stenosis 37) was 42 mL/min.
In the case of `OCCN(CCO)c1nc(N2CCCCC2)c2nc(N(CCO)CCO)nc(N3CCCCC3)c2n1` [dipyridamole], the “ST-segment changes on ECG” value (patients [3]) is given as 8%, the headaches (patients [3]) is given as 12% and the “fall of mean systolic blood pressure” value (patients [4]) is given as 14 mm Hg. The “patients with a >20% drop in systolic blood pressure” value (patients [4]) was 11%.
